Laboratory results from patent publication EP0565593B1, “REDUCING PESTICIDAL INTERACTIONS IN CROPS” (priority 1990, dated 1992).

Key:
[1] = system: VELE (velvetleaf); assay: Greenhouse test Procedure I with PPI or POE herbicide and foliar insecticide (Example 5; Table 5); type: in vivo, Abutilon theophrasti
Protocol: Containers were filled and compacted with a fumigated silt loam top soil to a depth of about 1.3 cm from the top of the container. A first container was designated as an untreated control, a second container was designated as a herbicide control, and a third container was designated as a herbicide + antidote test container. Each of the containers was seeded with a crop species. A measured amount of herbicide dispersed or dissolved in acetone was applied to a measured quantity of soil. To this same quantity of soil treated with herbicide, there was added a measured amount of antidote dispersed or dissolved in acetone. The quantity of soil treated with the herbicide and antidote was thoroughly mixed to incorporate the herbicide and antidote in the soil uniformly. The seed bed in the third container of soil was covered with the soil treated with the herbicide and antidote and the container was leveled. For each test series, the seed beds of the first and second containers were likewise covered by soil layers. the cover layer of the first container was not treated with herbicide or antidote.
Insecticide application was made as described in the tests in the examples below. The containers were then placed on a bench in a greenhouse and sub-irrigated as required for the duration of the test.
Said herbicide and antidote were sequentially pipetted onto cover layers, which were spread over the seed beds and subirrigated as in Procedure I and allowed to grow to a height of about 10 cm over a period of 11 days. Herbicide No. 1 and Insecticide No. 2 were then sequentially sprayed on the plant foliage. Observations were made three (3) weeks after initial treatment, 10 days after foliar treatment).

[2] = system: Corn; assay: Multi-crop greenhouse test, soil-applied (Examples 65, 66; Tables 64, 65); type: in vivo; set-up: inhibition: dose or concentration left out as unconfirmed; details: Zea mays; for inhibition at 18 g/ha: Herb. No. 1 0.018 Kg/Ha alone; for inhibition at 70 g/ha: Herb. No. 1 0.07 Kg/Ha alone; for inhibition at 280 g/ha: Herb. No. 1 0.28 Kg/Ha alone
Method in brief: (§1)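 Injury to crops and weeds was rated after granular COUNTER 15G and acetone-delivered safeners were mixed into cover soil over seeded silt loam pans. MON-12000 followed POE 6 days after PPI, with injury read 10 days later. Two replicates.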

[3] = system: Giant foxtail (GIFT); assay: as above; type: in vivo; set-up: inhibition: dose or concentration left out as unconfirmed; details: Setaria faberi; for inhibition at 18 g/ha: Herb. No. 1 0.018 Kg/Ha alone; for inhibition at 70 g/ha: Herb. No. 1 0.07 Kg/Ha alone; for inhibition at 280 g/ha: Herb. No. 1 0.28 Kg/Ha alone
Method in brief: as §1

[4] = system: RICE; assay: as above; type: in vivo; set-up: inhibition: dose or concentration left out as unconfirmed; details: Oryza sativa; for inhibition at 18 g/ha: Herb. No. 1 0.018 Kg/Ha alone; for inhibition at 70 g/ha: Herb. No. 1 0.07 Kg/Ha alone; for inhibition at 280 g/ha: Herb. No. 1 0.28 Kg/Ha alone
Method in brief: as §1

[5] = system: grain sorghum (GRSO); assay: as above; type: in vivo; set-up: inhibition: dose or concentration left out as unconfirmed; details: Sorghum; for inhibition at 18 g/ha: Herb. No. 1 0.018 Kg/Ha alone; for inhibition at 70 g/ha: Herb. No. 1 0.07 Kg/Ha alone; for inhibition at 280 g/ha: Herb. No. 1 0.28 Kg/Ha alone
Method in brief: as §1

[6] = system: soybean (SOBE); assay: as above; type: in vivo; set-up: inhibition: dose or concentration left out as unconfirmed; details: Glycine max; for inhibition at 18 g/ha: Herb. No. 1 0.018 Kg/Ha alone; for inhibition at 70 g/ha: Herb. No. 1 0.07 Kg/Ha alone; for inhibition at 280 g/ha: Herb. No. 1 0.28 Kg/Ha alone
Method in brief: as §1

[7] = system: Velvetleaf (VELE); assay: as above; type: in vivo, Abutilon theophrasti; set-up: inhibition: dose or concentration left out as unconfirmed; details: Abutilon theophrasti; for inhibition at 18 g/ha: Herb. No. 1 0.018 Kg/Ha alone; for inhibition at 70 g/ha: Herb. No. 1 0.07 Kg/Ha alone; for inhibition at 280 g/ha: Herb. No. 1 0.28 Kg/Ha alone
Protocol: Tests according to this invention in various crops indicate widespread application of the invention. In Examples 62-66 below are described tests with a variety of herbicides contacted with COUNTER® 15G in the presence and absence of MON-7400 (Antidote No. 12); MON-13900 (No. 1); MON-4660 (No. 16) and flurazole (No. 16). Those tests were conducted according to Procedures IV or V described above and illustrated further in other foregoing examples. Plants used in all tests were, for crops (as abbreviated in parentheses); cotton (COTT); soybean (SOBE); CORN, grain sorghum (GRSO); wheat (WHEA) and RICE, and the weeds giant foxtail (GIFT) and velvetleaf (VELE). The data in the tables below represent averages of two replications.
In this test the crops and weeds were planted 1.3 cm deep in 13.7 cm X 27.7 cm pans containing Dupo silt loam soil. The test safeners were applied in acetone solution and COUNTER 15G as dry granules to soil cover layers and incorporated by shaking in a bag. Treated cover layers were placed on seeded pans which were transferred to greenhouse benches and subirrigated. Herbicide was applied POE six (6) days after PPI initiation and observations of plant injury made ten (10) days later; results are shown in Table 61. The herbicide used in this example was BEACON (No. 8).
In another test in the several crops and weeds used in this test series, the herbicidal component was MON-12000 (No. 1); the other components were the same. the procedure used in this test was the same as that described in Example 62, modified to use a light overhead irrigation (about 0.32 cm/day) during days 4-7 of the test. Table 64 […]

[8] = Table 64, Herb. No. 1 0.018 Kg/Ha + Biocide No. 1 8.96 Kg/Ha
[9] = Table 64, Herb. No. 1 0.07 Kg/Ha + Biocide No. 1 8.96 Kg/Ha
[10] = Table 64, Herb. No. 1 0.28 Kg/Ha + Biocide No. 1 8.96 Kg/Ha
[11] = Table 65, Herb. No. 1 0.018 Kg/Ha + Biocide No. 1 8.96 Kg/Ha
[12] = Table 65, Herb. No. 1 0.07 Kg/Ha + Biocide No. 1 8.96 Kg/Ha
[13] = Table 65, Herb. No. 1 0.28 Kg/Ha + Biocide No. 1 8.96 Kg/Ha

SMILES: COC(=O)c1c(Cl)nn(C)c1S(=O)(=O)NC(=O)Nc1nc(OC)cc(OC)n1 [Herbicide No. 1, N-[(4,6-dimethoxypyrimidin-2-yl)aminocarbonyl]-3-chloro-4-methoxycarbonyl-5-sulfonamide, reference compound]
- % Injury VELE ([1]; Herbicide 1 0.07 Kg/Ha POE, 10 days after foliar treatment): 30%
- % Injury VELE ([1]; Herbicide 1 0.14 Kg/Ha PPI, 3 weeks): 78%
- % Injury VELE ([1]; Herbicide 1 0.28 Kg/Ha POE, 10 days after foliar treatment): 30%
- % Injury VELE ([1]; Herbicide 1 0.56 Kg/Ha PPI, 3 weeks): 93%
- % Injury VELE ([1]; Herbicide 1 1.12 Kg/Ha POE, 10 days after foliar treatment): 20%
- % Injury VELE ([1]; Herbicide 1 2.24 Kg/Ha PPI, 3 weeks): 95%
- % Injury VELE ([1]; Insecticide 2 1.68 (foliar) + Herbicide 1 0.14 Kg/Ha PPI, 3 weeks): 90%
- % Injury VELE ([1]; Insecticide 2 1.68 (foliar) + Herbicide 1 0.56 Kg/Ha PPI, 3 weeks): 90%
- % Injury VELE ([1]; Insecticide 2 1.68 (foliar) + Herbicide 1 2.24 Kg/Ha PPI, 3 weeks): 98%
- % Injury VELE ([1]; Insecticide 2 1.68 + Herbicide 1 0.07 Kg/Ha POE, 10 days after foliar treatment): 23%
- % Injury VELE ([1]; Insecticide 2 1.68 + Herbicide 1 0.28 Kg/Ha POE, 10 days after foliar treatment): 42%
- inhibition [2, 8]: 0%
- inhibition at 18 g/ha ([2]; Table 64): 0%
- inhibition [2, 9]: 10%
- inhibition at 70 g/ha ([2]; Table 64): 0%
- inhibition [2, 10]: 60%
- inhibition at 280 g/ha ([2]; Table 64): 10%
- inhibition [2, 11]: 0%
- inhibition at 18 g/ha ([2]; Table 65): 0%
- inhibition [2, 12]: 0%
- inhibition at 70 g/ha ([2]; Table 65): 0%
- inhibition [2, 13]: 75%
- inhibition at 280 g/ha ([2]; Table 65): 10%
- inhibition [3, 8]: 70%
- inhibition at 18 g/ha ([3]; Table 64): 0%
- inhibition [3, 9]: 70%
- inhibition at 70 g/ha ([3]; Table 64): 20%
- inhibition [3, 10]: 85%
- inhibition at 280 g/ha ([3]; Table 64): 40%
- inhibition [3, 11]: 30%
- inhibition at 18 g/ha ([3]; Table 65): 20%
- inhibition [3, 12]: 65%
- inhibition at 70 g/ha ([3]; Table 65): 60%
- inhibition [3, 13]: 90%
- inhibition at 280 g/ha ([3]; Table 65): 70%
- inhibition [4, 8]: 0%
- inhibition at 18 g/ha ([4]; Table 64): 0%
- inhibition [4, 9]: 10%
- inhibition at 70 g/ha ([4]; Table 64): 0%
- inhibition [4, 10]: 25%
- inhibition at 280 g/ha ([4]; Table 64): 40%
- inhibition [4, 11]: 0%
- inhibition at 18 g/ha ([4]; Table 65): 0%
- inhibition [4, 12]: 25%
- inhibition at 70 g/ha ([4]; Table 65): 40%
- inhibition [4, 13]: 90%
- inhibition at 280 g/ha ([4]; Table 65): 60%
- inhibition [5, 8]: 0%
- inhibition at 18 g/ha ([5]; Table 64): 0%
- inhibition [5, 9]: 15%
- inhibition at 70 g/ha ([5]; Table 64): 0%
- inhibition [5, 10]: 15%
- inhibition at 280 g/ha ([5]; Table 64): 20%
- inhibition [5, 11]: 15%
- inhibition at 18 g/ha ([5]; Table 65): 0%
- inhibition [5, 12]: 20%
- inhibition at 70 g/ha ([5]; Table 65): 40%
- inhibition [5, 13]: 85%
- inhibition at 280 g/ha ([5]; Table 65): 80%
- inhibition [6, 8]: 5%
- inhibition at 18 g/ha ([6]; Table 64): 15%
- inhibition [6, 9]: 70%
- inhibition at 70 g/ha ([6]; Table 64): 45%
- inhibition [6, 10]: 75%
- inhibition at 280 g/ha ([6]; Table 64): 70%
- inhibition [6, 11]: 0%
- inhibition at 18 g/ha ([6]; Table 65): 0%
- inhibition [6, 12]: 0%
- inhibition at 70 g/ha ([6]; Table 65): 0%
- inhibition [6, 13]: 15%
- inhibition at 280 g/ha ([6]; Table 65): 20%
- inhibition [7, 8]: 75%
- inhibition at 18 g/ha ([7]; Table 64): 70%
- inhibition [7, 9]: 85%
- inhibition at 70 g/ha ([7]; Table 64): 90%
- inhibition [7, 10]: 100%
- inhibition at 280 g/ha ([7]; Table 64): 100%
- inhibition [7, 11]: 10%
- inhibition at 18 g/ha ([7]; Table 65): 15%
- inhibition [7, 12]: 80%
- inhibition at 70 g/ha ([7]; Table 65): 80%
- inhibition [7, 13]: 90%
- inhibition at 280 g/ha ([7]; Table 65): 90%
